In patent US10316017B2, “COT modulators and methods of use thereof” (Gilead Sciences, Inc., priority 2015, dated 2019):

How the values were obtained:
[1] = tested on: TNFα production in LPS-stimulated human monocytes; assay: Cot Monocyte TNFα Cell Based Assay; details: Homo sapiens, Monocyte, TNFα in LPS-stimulated human monocytes; read-out: EC50 TNF
Summary of the method: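 Human monocytes (5,000 cells/well) pretreated with compound for 1 hour at 37° C (0.5% DMSO), then stimulated with 50 pg/ml LPS for 4 hours. Total TNFα measured by TR-FRET after overnight antibody incubation at room temp, expressed as percent of control between unstimulated and stimulated cells.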

[2] = biological target: T1, human Cot catalytic domain (30-397 amino acids) (Homo sapiens, UniProt P41279); assay: High Throughput Cot Biochemical Assay (KinEASE TR-FRET); details: Cot KinEASE TR-FRET (HTRF) biochemical assay, 400 μM ATP; read-out: IC50 HTRF
T1 construct: Purified recombinant human Cot catalytic domain (30-397 amino acids) was purchased from Cama Biosciences; purchased Cama Biosciences (so in the source)
T1 sequence (P41279 30-397): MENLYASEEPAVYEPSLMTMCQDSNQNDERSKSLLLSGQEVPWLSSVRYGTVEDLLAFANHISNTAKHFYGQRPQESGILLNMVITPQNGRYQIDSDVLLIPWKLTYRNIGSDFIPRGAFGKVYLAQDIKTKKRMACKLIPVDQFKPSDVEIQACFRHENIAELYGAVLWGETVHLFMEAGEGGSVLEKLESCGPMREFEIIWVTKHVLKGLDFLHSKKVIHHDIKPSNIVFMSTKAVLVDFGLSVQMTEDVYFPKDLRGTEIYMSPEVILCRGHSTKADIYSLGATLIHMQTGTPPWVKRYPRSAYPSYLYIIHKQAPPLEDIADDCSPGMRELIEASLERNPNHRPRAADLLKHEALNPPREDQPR
Summary of the method: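 Recombinant human Cot catalytic domain (aa 30-397), 5 nM, with 1 μM STK3 peptide and 400 μM ATP in MOPS pH 7.0 buffer with MgOAc, DTT, BSA, NP-40, glycerol, 0.1% DMSO. Phosphorylated XL665-peptide detected by Eu-[…] antibody TR-FRET.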

SMILES	EC50 [1] [µM]	IC50 [2] [µM]
[2H][C@@](Nc1cc(C#N)c2ncc(C#N)c(NC3CCOCC3(C)C)c2c1)(c1cn(C2CC2)nn1)c1ccccc1Cl (stereo partly drawn) [Example 128, 6-(((S)-(2-chlorophenyl) (1-cyclopropyl-1H-1,2,3-triazol-4-yl)methyl-d)amino)-4-((3,3-dimethyltetrahydro-2H-pyran-4-yl)amino)quinoline-3,8-dicarbonitrile]	0.054	0.002
[2H][C@@](Nc1cc(C#N)c2ncc(C#N)c(NCC(C)(C)C)c2c1)(c1cn(C2(C(F)(F)F)CC2)nn1)c1ccccc1Cl [Example 129, (S)-6-(((2-chlorophenyl) (1-(1-(trifluoromethyl)cyclopropyl)-1H-1,2,3-triazol-4-yl)methyl-d)amino)-4-(neopentylamino) quinoline-3,8-dicarbonitrile]	0.344	0.02
[2H][C@](Nc1cc(C#N)c2ncc(C#N)c(NCC(C)(C)C)c2c1)(c1ccc(F)cc1)c1cn(C2(C(F)(F)F)CC2)nn1 [Example 130, (S)-6-(((4-fluorophenyl) (1-(1-(trifluoromethyl)cyclopropyl)-1H-1,2,3-triazol-4-yl)methyl-d)amino)-4-(neopentylamino) quinoline-3,8-dicarbonitrile]	0.195	0.023
[2H][C@](Nc1cc(C#N)c2ncc(C#N)c(N[C@H](CC)c3ccccc3)c2c1)(c1ccc(F)cc1)c1cn(C2(C(F)(F)F)CC2)nn1 [Example 132, 6-(((S)-(4-fluorophenyl) (1-(1-(trifluoromethyl)cyclopropyl)-1H-1,2,3-triazol-4-yl)methyl-d)amino)-4-(((R)-1-phenylpropyl)amino)quinoline-3,8-dicarbonitrile]	0.14	0.014
[2H][C@](Nc1ccc2ncc(C#N)c(NCC(C)(C)C)c2c1)(c1ccc(F)cc1)c1cn(C2CC2)nn1 [Example 133, 6-(((1-cyclopropyl-1H-1,2,3-triazol-4-yl)(4-fluorophenyl)methyl-d)amino)-4-(neopentylamino) quinoline-3-carbonitrile]	0.313	0.021
[2H][C@](Nc1cc(Cl)c2ncc(C#N)c(NCC(C)(C)CC#N)c2c1)(c1ccc(F)cc1)c1cn(C2CC2)nn1 [Example 134, (S)-8-chloro-4-((3-cyano-2,2-dimethylpropyl)amino)-6-(((1-cyclopropyl-1H-1,2,3-triazol-4-yl)(4-fluorophenyl)methyl-d)amino)quinoline-3-carbonitrile]	0.142	0.006
[2H][C@](Nc1cc(Cl)c2ncc(C#N)c(NC3(C4CC4)CC3)c2c1)(c1ccc(F)cc1)c1cn(C2CC2)nn1 [Example 135, (S)-4-([1,1'-bi(cyclopropan)]-1-ylamino)-8-chloro-6-(((1-cyclopropyl-1H-1,2,3-triazol-4-yl)(4-fluorophenyl)methyl-d)amino)quinoline-3-carbonitrile]	7.5	0.962
[2H][C@@](Nc1cc(Cl)c2ncc(C#N)c(N[C@H](CCC#N)c3ccccc3)c2c1)(c1cn(C2CC2)nn1)c1cccc(C#N)c1C [Example 136, 8-chloro-4-(((R)-3-cyano-1-phenylpropyl)amino)-6-(((S)-(3-cyano-2-methylphenyl)(1-cyclopropyl-1H-1,2,3-triazol-4-yl)methyl-d)amino) quinoline-3-carbonitrile]	0.02	0.001
[2H][C@](Nc1cc(-c2cnn(C)c2)c2ncc(C#N)c(NCC(C)(C)C)c2c1)(c1ccc(F)cc1)c1cn(C2CC2)nn1 [Example 137, (S)-6-(((1-cyclopropyl-1H-1,2,3-triazol-4-yl)(4-fluorophenyl)methyl-d)amino)-8-(1-methyl-1H-pyrazol-4-yl)-4-(neopentylamino) quinoline-3-carbonitrile]	4.37	0.606
[2H][C@](Nc1cc(C(=O)N(C)C)c2ncc(C#N)c(NCC(C)(C)C)c2c1)(c1ccc(F)cc1)c1cn(C2CC2)nn1 [Example 138, (S)-3-cyano-6-(((1-cyclopropyl-1H-1,2,3-triazol-4-yl) (4-fluorophenyl)methyl-d)amino)-N,N-dimethyl-4-(neopentylamino) quinoline-8-carboxamide]	1.36	0.139
[2H][C@](Nc1cc(-c2ccc(F)nc2)c2ncc(C#N)c(NCC(C)(C)C)c2c1)(c1ccc(F)cc1)c1cn(C2CC2)nn1 [Example 139, (S)-6-(((1-cyclopropyl-1H-1,2,3-triazol-4-yl)(4-fluorophenyl)methyl-d)amino)-8-(6-fluoropyridin-3-yl)-4-(neopentylamino) quinoline-3-carbonitrile]	0.276	0.033
[2H][C@](Nc1cc(-c2ccncc2)c2ncc(C#N)c(NCC(C)(C)C)c2c1)(c1ccc(F)cc1)c1cn(C2CC2)nn1 [Example 140, (S)-6-(((1-cyclopropyl-1H-1,2,3-triazol-4-yl)(4-fluorophenyl)methyl-d)amino)-4-(neopentylamino)-8-(pyridin-4-yl)quinoline-3-carbonitrile]	> 10	1.5
[2H][C@@](Nc1cc(Cl)c2ncc(C#N)c(NC3CCOCC3(C)C)c2c1)(c1cn(C2CC2)nn1)c1ccccc1Cl (stereo partly drawn) [Example 141, 8-chloro-6-(((S)-(2-chlorophenyl)(1-cyclopropyl-1H-1,2,3-triazol-4-yl)methyl-d)amino)-4-((3,3-dimethyltetrahydro-2H-pyran-4-yl)amino) quinoline-3-carbonitrile]	0.072	0.005
[2H][C@](Nc1cc(Cl)c2ncc(C#N)c(NC3[C@H]4COC[C@@H]34)c2c1)(c1ccc(F)cc1)c1cn(C2CC2)nn1 (stereo partly drawn) [Example 142, 4-(((1R,5S)-3-oxabicyclo[3.1.0]hexan-6-yl)amino)-8-chloro-6-(((S)-(1-cyclopropyl-1H-1,2,3-triazol-4-yl)(4-fluorophenyl)methyl-d)amino)quinoline-3-carbonitrile]	0.077	0.008
[2H][C@](Nc1cc(Cl)c2ncc(C#N)c(NC3CC34CCCCC4)c2c1)(c1ccc(F)cc1)c1cn(C2CC2)nn1 (stereo partly drawn) [Example 143, 8-chloro-6-(((S)-(1-cyclopropyl-1H-1,2,3-triazol-4-yl)(4-fluorophenyl)methyl-d)amino)-4-(spiro[2.5]octan-1-ylamino)quinoline-3-carbonitrile]	1.17	0.099
[2H][C@](Nc1cc(Cl)c2ncc(C#N)c(N[C@@H]3CCOCC3(C)C)c2c1)(c1ccc(F)cc1)c1cn(C2CC2)nn1 [Example 146, 8-chloro-6-(((S)-(1-cyclopropyl-1H-1,2,3-triazol-yl)(4-fluorophenyl)methyl-d)amino)-4-(((R)-3,3-dimethyltetrahydro-2H-pyran-4-yl)amino) quinoline-3-carbonitrile]	0.895	0.095
[2H][C@](Nc1cc(Cl)c2ncc(C#N)c(NCCc3nccs3)c2c1)(c1ccc(F)cc1)c1cn(C2CC2)nn1 [Example 147, (S)-8-chloro-6-(((1-cyclopropyl-1H-1,2,3-triazol-4-yl)(4-fluorophenyl)methyl-d)amino)-4-((2-(thiazol-2-yl)ethyl)amino) quinoline-3-carbonitrile]	3.61	0.254
[2H][C@](Nc1cc(Cl)c2ncc(C#N)c(NCCc3ccn(C)n3)c2c1)(c1ccc(F)cc1)c1cn(C2CC2)nn1 [Example 148, (S)-8-chloro-6-(((1-cyclopropyl-1H-1,2,3-triazol-4-yl)(4-fluorophenyl)methyl-d)amino)-4-((2-(1-methyl-1H-pyrazol-3-yl)ethyl)amino) quinoline-3-carbonitrile]	8.67	2.14
[2H][C@](Nc1cc(Cl)c2ncc(C#N)c(NCCc3ccnn3C)c2c1)(c1ccc(F)cc1)c1cn(C2CC2)nn1 [Example 149, (S)-8-chloro-6-(((1-cyclopropyl-1H-1,2,3-triazol-4-yl)(4-fluorophenyl)methyl-d)amino)-4-((2-(1-methyl-1H-pyrazol-5-yl)ethyl)amino) quinoline-3-carbonitrile]	2.11	0.162
[2H][C@](Nc1ccc2nc(F)c(C#N)c(NCC(C)(C)C)c2c1)(c1ccc(F)cc1)c1cn(C2CC2)nn1 [Example 151, (S)-6-(((1-cyclopropyl-1H-1,2,3-triazol-4-yl)(4-fluorophenyl)methyl-d)amino)-2-fluoro-4-(neopentylamino) quinoline-3-carbonitrile]	5.87	> 10
[2H][C@@](Nc1cc(C#N)c2ncc(C#N)c(NCC(C)(C)C)c2c1)(c1cn(C2CC2)nn1)c1ccccc1Cl [Example 152, (S)-6-(((2-chlorophenyl) (1-cyclopropyl-1H-1,2,3-triazol-4-yl)methyl-d)amino)-4-(neopentylamino) quinoline-3,8-dicarbonitrile]	0.213	0.007
[2H][C@](Nc1cc(Cl)c2ncc(C#N)c(NC34CC(C3)C4)c2c1)(c1ccc(F)cc1)c1cn(C2CC2)nn1 [Example 153, (S)-4-(bicyclo[1.1.1]pentan-1-ylamino)-8-chloro-6-(((1-cyclopropyl-1H-1,2,3-triazol-4-yl)(4-fluorophenyl)methyl-d)amino)quinoline-3-carbonitrile]	0.892	0.196
[2H][C@](Nc1cc(Cl)c2ncc(C#N)c(N[C@@H]3C[C@H]3C(F)(F)F)c2c1)(c1ccc(F)cc1)c1cn(C2CC2)nn1 [Example 154, 8-chloro-6-(((S)-(1-cyclopropyl-1H-1,2,3-triazol-4-yl)(4-fluorophenyl)methyl-d)amino)-4-(((1R,2R)-2-(trifluoromethyl)cyclopropyl)amino)quinoline-3-carbonitrile]	0.576	0.039
